Measured values as given in ChEMBL document CHEMBL3886937, “Pyrimidodiazepinone compound” (2016).

Assay: [3H]-Gabapentin Binding Assay: A test compound (20 μL) diluted to 5 times of the final concentration with Binding buffer, [3H]-gabapentin diluted to 100 nmol/L with binding buffer [20 μL (final concentration 20 nmol/L)], and the rat cerebral cortex membrane fraction (60 μL; 12 μg membrane fraction) obtained in the (1) above were added to each well of a 96-well round-bottom plate. After being sufficiently mixed, these were allowed to react at room temperature for 1 hour. After the reaction, the reaction sample was suction filtered using a filter plate with 50 μL/well of 0.3 vol % polyethyleneimine added, and a cell harvester. The filter was then washed with ice-cooled Wash buffer (100 mmol/L NaCl, 0.1 w/v % BSA). After being washed, the filter plate was dried, and a scintillation cocktail (MicroScint-20, purchased from PerkinElmer) was added (50 μL/well), and the radioactivity on the filter was measured. The radioactivity obtained in the absence of the test compound was measured as total binding amount, and the radioactivity obtained by addition of an unlabeled gabapentin (final concentration 100 mmol/L) as a test compound was measured as non-specific binding amount.

Row | Structure (SMILES) | IC50 [nM]
1 | CCNc1ncc2c(n1)N1CCC[C@H]1CN(c1cccc3c(=O)n(C)ccc13)C2=O | 5
2 | CNc1ncc2c(n1)N1CCC[C@H]1CN(c1c[nH]c3ncn(C)c(=O)c13)C2=O | 3.6
3 | CCNc1ncc2c(n1)N1CCC[C@H]1CN(c1cccc3c(=O)n(CCF)c(C)nc13)C2=O | 4.8
4 | CNc1ncc2c(n1)N1CCC[C@H]1CN(c1cccn3c(=O)c(C)c(C)nc13)C2=O | 4.7
5 | CCNc1ncc2c(n1)N1CCC[C@H]1CN(c1cccc3ncn(C)c(=O)c13)C2=O | 3.9
6 | CCNc1ncc2c(n1)N1CCC[C@H]1CN(c1cccc3c(=O)n(C)c(COC)nc13)C2=O | 3.8
7 | CCn1cnc2c(N3C[C@@H]4CCCN4c4nc(NC)ncc4C3=O)cccc2c1=O | 4
8 | CNc1ncc2c(n1)N1CCC[C@H]1CN(c1cncc3c(=O)n(C)cnc13)C2=O | 4.1
9 | CCNc1ncc2c(n1)N1CCC[C@H]1CN(c1cccn3c(=O)cc(C)nc13)C2=O | 5.2

Molecules with a lower IC50, results first:

Row | IC50 [nM] | Structure (SMILES)
10 | 3 | CCNc1ncc2c(n1)N1CCC[C@H]1CN(c1scc3c(=O)n(C)cnc13)C2=O
11 | 1.2 | CNc1ncc2c(n1)N1CCC[C@H]1CN(c1cccc3c(=O)n(CCCN(C)C)cnc13)C2=O
12 | 3 | CCCNc1ncc2c(n1)N1CCC[C@H]1CN(c1cccc3c(=O)n(C)cnc13)C2=O
13 | 2.6 | CCNc1ncc2c(n1)N1CCC[C@H]1CN(c1c[nH]c3ncn(C)c(=O)c13)C2=O
14 | 0.7 | CCNc1ncc2c(n1)N1CCC[C@H]1CN(c1cccc3c(=O)n(CCCN(C)C)cnc13)C2=O
15 | 2.6 | CNc1ncc2c(n1)N1CCC[C@H]1CN(c1cccc3c(=O)n(C)cnc13)C2=O
16 | 2.7 | CCNc1ncc2c(n1)N1CCC[C@H]1CN(c1cccn3c(=O)c(C)c(C)nc13)C2=O
17 | 2.6 | CCNc1ncc2c(n1)N1CCC[C@H]1CN(c1cccc3c(=O)n(C)c(C)nc13)C2=O
